Consider 7 compounds from PubChem BioAssay (NCI).

Structures are written as SMILES. Several values for one entry are separate records, joined by “and”; a condition that tells them apart may be missing. Identical values can stand only once.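 All cell lines were grown in 96-well plates and treated with compound for 48 hours. At the GI50, growth is halved. The concentration for full growth arrest is given as TGI.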

Test in all cases: NCI tumour cell line growth inhibition, 48 h
Assay [1] concerns SR leukemia.
In assay [2] the test system is HS 578T breast.
The subject of assay [3] is SF-295 CNS.
The test system of assay [4] is ACHN renal.
Assay [5] concerns SNB-75 CNS.
Assay [6] concerns BT-549 breast.
In assay [7] the test system is IGROV1 ovarian.
For assay [8], the system named is MCF7 breast.
Assay [9] deals with UACC-62 melanoma.
The subject of assay [10] is U251 CNS.

On to `CC[n+]1c(-c2ccccc2)c2cc(N)ccc2c2ccc(N)cc21`, for which the GI50 was 0.801 µM and 1.69 µM and 4.08 µM in assay [1]; 1.51 µM in assay [3]; 14.1 µM in [4]; 1.29 µM in [5]; 0.831 µM in [6]; 0.522 µM in assay [7]. The results for the GI50 in [8], in [9] and in assay [10] were 1.07 µM, 0.578 µM and 0.399 µM, respectively. The TGI is > 100 µM and 13 µM in assay [1]; 5.86 µM in assay [2]; 13.7 µM and 15.5 µM and 29 µM in assay [3]; > 100 µM in assay [4]; 3.16 µM and 1.14 µM in assay [5]; 3.01 µM and 3.87 µM in [6]. The TGI in assay [7] was 10.2 µM and 12.9 µM; in assay [8], 12.9 µM and 15.3 µM; in assay [9], 2.4 µM and 3.61 µM; in assay [10], 10.2 µM and 20.7 µM.

On to `COC(=O)c1ccc(NC(N)=NCCC(C)(C)c2ccc(C(F)(F)F)cc2)nc1`, for which the GI50 in [1] is 0.892 µM; in [2] it was 2.98 µM; in assay [3] it was 1.63 µM; in assay [4] it was 1.91 µM; in assay [5], 5.51 µM; in assay [6], 4.85 µM. Moreover, the GI50 is 1.77 µM in assay [7], 1.7 µM in [8], 1.58 µM in assay [9] and 2.01 µM in assay [10]. Moreover, the TGI in [1] is 2.91 µM; in [2], 9.9 µM; in assay [3], 3.51 µM; in assay [4], 4.85 µM; in assay [5], 19.8 µM; in assay [6], 18.1 µM. Further, the TGI in [7] turned out to be 3.82 µM; in [8], 3.87 µM; in assay [9], 3.07 µM; in [10], 3.89 µM.

`CCc1ccc(Oc2c(-c3ccc(OCc4ccc(Cl)cc4)cc3O)nn(C)c2C(F)(F)F)cc1`: the GI50 in [1] is 0.502 µM; in assay [2] it was 1.5 µM; in [3], 0.947 µM; in assay [4], 0.385 µM; in assay [5], 1.34 µM; in [6], 1.56 µM. Besides, the GI50 in assay [7] was 0.654 µM; in assay [8], 0.339 µM; in assay [9], 0.516 µM; in assay [10] it was 0.357 µM. The TGI in assay [1] was determined as 3.76 µM; in [2] it was 4.92 µM; in assay [3] it was 2.51 µM; in [4], 1.7 µM; in assay [5], 4.49 µM; in [6] it was 3.34 µM. In addition, the TGI in assay [7] is 2.7 µM; in assay [8] it was 1.9 µM; in [9], 2.25 µM; in [10] it was 1.36 µM.

Take `CCOC(=O)c1cn(C)c2c(OC)c3ccccc3c(OC)c2c1=O`: the GI50 is 28.5 µM in [1]; 23.6 µM in assay [2]; 21.4 µM in assay [3]; 46.8 µM in assay [4]; > 100 µM in assay [5]; 43 µM in [6]. In addition, the GI50 was 52.6 µM in [7], 22.9 µM in assay [8], 19.5 µM in [9] and 20.3 µM in assay [10]. Also, the TGI was 88.6 µM in [1]; 63.8 µM in assay [2]; 55.2 µM in [3]; > 100 µM in assay [4]; > 100 µM in [5]; > 100 µM in assay [6]. Moreover, the TGI in assay [7] is > 100 µM; in assay [8], 47.8 µM; in assay [9], 36.4 µM; in assay [10], 55.3 µM.

For `CC(=O)Nc1cccc(C#Cc2cncnc2Nc2ccc(OCc3cccc(F)c3)c(Cl)c2)c1`, the GI50 in assay [1] is > 18.7 µM; in assay [2], 10.2 µM; in [3] it was 6.47 µM; in [4] it was 6.09 µM; in assay [5] it was 13.2 µM; in assay [6] it was 11.9 µM. Moreover, the GI50 in assay [7] is 4.49 µM; in assay [8], 8.33 µM; in [9] it was 8.88 µM; in assay [10], 11.8 µM. The TGI in assay [1], in assay [2], in assay [3], in assay [4], in [5] and in assay [6] was > 25 µM in each case. The TGI in [7], in [8], in assay [9] and in assay [10] was > 25 µM throughout.

With `COc1ccc(-c2cnc(-c3ccncc3-c3cccc(OC)c3)o2)cc1`, the GI50 is < 0.0152 µM in assay [1]; 0.0354 µM in assay [2]; 0.0294 µM in [3]; 0.138 µM in assay [4]; 0.0329 µM in assay [5]; 0.154 µM in assay [6]. Further, the GI50 was 0.0754 µM in assay [7], 0.113 µM in assay [8], 0.0508 µM in assay [9] and 0.0387 µM in [10]. The TGI was 13.5 µM in [1]; 20.2 µM in assay [2]; 13.8 µM in assay [3]; 14.7 µM in assay [4]; 23.2 µM in assay [5]; 13.9 µM in assay [6]. Besides, the TGI was found to be 18.4 µM in [7], 12.2 µM in assay [8], 15.5 µM in assay [9] and 13.4 µM in assay [10].

For the compound `CC(=O)C1(C(=O)C(=[N+]=[N-])S(=O)(=O)c2ccccc2)CC1`, the TGI in assay [1], in assay [2], in [3], in assay [4], in assay [5] and in assay [6] was > 100 µM in each case. The TGI in assay [7], in assay [8], in [9] and in [10] was > 100 µM throughout.
